Assay results from patent US20140045697A1, “ANDROSTANEDIOL DERIVATIVES AS PLANT GROWTH REGULATOR COMPOUNDS” (priority 2011, published 2014).

Key:
maize = assay: Field trials on maize at 2 locations in South Africa (Kransfontein, Lindley), spray application at 5-6 leaf growth stage; format: in vivo; settings: for Number of cobs per plot / Plant height 9-10 leaf stage / Plant height 10 leaf stage / Yield / Plant height 6-7 leaf stage / Plant height 9 leaf stage: mean of 6 replicates
Experimental: Field trials were carried out at 2 locations in South Africa on maize. Treatments as shown in tables 3 and 4 were applied by spray application at 5-6 leaf growth stage. Assessments were made of plant height, number of maize cobs per plot, and total maize yield at the end of the trial. The results in Table 3 and 4 are the mean of 6 replicates per treatment. The standard is an analog of the Formula I of the present invention, as described in WO2009/115060 (formula IV).

[1] = test system: Phaseolus vulgaris L. cv. Pinto; assay: Bean second and third internode elongation bioassay (glass house); format: in vivo; settings: for % increase compared with control, Total elongation (internode 2 + internode 3) / % increase compared with control, Internode 2 / % increase compared with control, Internode 3: applied through wound site, scored after 10 days; for % increase compared with control, Internode 2 / % increase compared with control, Internode 3: 8 replicates; for elongation of internode 3 (in words) / elongation of internodes by rate (in words): Table 2; for elongation of internode 3 (in words): standard at low concentrations; for elongation of internodes by rate (in words): rates 6, 20 and 200 per plant
Experimental: Bean seeds of Phaseolus vulgaris L. cv. Pinto were germinated in drench soil in 140 ml pots; pots with 7-day old seedlings were thinned out to one seedling per pot. Young plants of 12-14 days with 2-3 mm long second internodes were used in bioassay screening experiments. Germination, early plant growth as well the screening of growth symptoms of young plants after application of compounds of formula (I) were done under similar glass house conditions: temperature 22° C. day/18° C. night, humidity 60%, day length 15 h day/9 h night. Plants were watered manually on a daily basis, as needed.
Compounds of formula (I) were applied through a wound site using a micropipette. The wound site was introduced through removal of one of the twin leaves of the first set of true leaves. Small amounts of compounds were delivered at a time. The wound site was sealed with […] of Vaseline that was applied using a cotton ear bud. Compounds of formula (I) were dissolved in 99% ethanol and for the control/check a similar volume was used as for all treatments and in this case, the solution only contained 99% ethanol. Dilutions of stock solutions were made with distilled water. Eight replicates were included per treatment, including for the control. The scoring of growth elongation effects was performed after 10 days.
Growth promotion of bean plants by compounds of formula (I) was tested by scoring elongation of the second and third internode of bean plants. Scoring of growth stimulation effects was done by careful cutting and measuring the length of the two internodes. All compounds were tested at three rates (in […] per plant): 6, 20 and 200. Values represent the average percentage increase in stem elongation compared with the untreated control.

CO[C@]12C[C@H](O)CC[C@]1(C)[C@H]1CC[C@]3(C)[C@@H](O)CC[C@H]3[C@@H]1CC2=O [Compound P3, 5-methoxy-3α,17β-dihydroxyl-5α-androstan-6-one]
Number of cobs per plot, % increase compared to untreated control (maize; Kransfontein, 0.3 g AI/ha): 0.5% | Plant height 9-10 leaf stage, % increase compared to untreated control (maize; Kransfontein, 0.3 g AI/ha): 6.4% | Plant height 10 leaf stage, % increase compared to untreated control (maize; Kransfontein, 0.3 g AI/ha): 3.8% | Yield, % increase compared to untreated control (maize; Kransfontein, 0.3 g AI/ha): 1.7% | Number of cobs per plot (maize; Kransfontein, 0.3 g AI/ha): 35.0 | Plant height 9-10 leaf stage (maize; Kransfontein, 0.3 g AI/ha): 38.0 cm | Plant height 10 leaf stage (maize; Kransfontein, 0.3 g AI/ha): 49.5 cm | Yield (maize; Kransfontein, 0.3 g AI/ha): 4203.2 kg/ha | Number of cobs per plot, % increase compared to untreated control (maize; Kransfontein, 0.6 g AI/ha): 7.7% | Plant height 9-10 leaf stage, % increase compared to untreated control (maize; Kransfontein, 0.6 g AI/ha): 3.1% | Plant height 10 leaf stage, % increase compared to untreated control (maize; Kransfontein, 0.6 g AI/ha): 4.2% | Yield, % increase compared to untreated control (maize; Kransfontein, 0.6 g AI/ha): 2.3% | Number of cobs per plot (maize; Kransfontein, 0.6 g AI/ha): 37.5 | Plant height 9-10 leaf stage (maize; Kransfontein, 0.6 g AI/ha): 36.8 cm | Plant height 10 leaf stage (maize; Kransfontein, 0.6 g AI/ha): 49.7 cm | Yield (maize; Kransfontein, 0.6 g AI/ha): 4227.3 kg/ha | Number of cobs per plot, % increase compared to untreated control (maize; Lindley, 0.3 g AI/ha): 2.0% | Plant height 6-7 leaf stage, % increase compared to untreated control (maize; Lindley, 0.3 g AI/ha): 4.8% | Plant height 9 leaf stage, % increase compared to untreated control (maize; Lindley, 0.3 g AI/ha): 5.9% | Yield, % increase compared to untreated control (maize; Lindley, 0.3 g AI/ha): 3.3% | Number of cobs per plot (maize; Lindley, 0.3 g AI/ha): 60.5 | Plant height 6-7 leaf stage (maize; Lindley, 0.3 g AI/ha): 21.8 cm | Plant height 9 leaf stage (maize; Lindley, 0.3 g AI/ha): 32.3 cm | Yield (maize; Lindley, 0.3 g AI/ha): 1115.9 kg/ha | Number of cobs per plot, % increase compared to untreated control (maize; Lindley, 0.6 g AI/ha): 4.5% | Plant height 6-7 leaf stage, % increase compared to untreated control (maize; Lindley, 0.6 g AI/ha): 3.4% | Plant height 9 leaf stage, % increase compared to untreated control (maize; Lindley, 0.6 g AI/ha): 8.9% | Yield, % increase compared to untreated control (maize; Lindley, 0.6 g AI/ha): 3.1% | Number of cobs per plot (maize; Lindley, 0.6 g AI/ha): 62.0 | Plant height 6-7 leaf stage (maize; Lindley, 0.6 g AI/ha): 21.5 cm | Plant height 9 leaf stage (maize; Lindley, 0.6 g AI/ha): 33.2 cm | Yield (maize; Lindley, 0.6 g AI/ha): 11099.4 kg/ha | % increase compared with control, Total elongation (internode 2 + internode 3) ([1]; 6 μg per plant): 17% | % increase compared with control, Internode 2 ([1]; 6 μg per plant): 13% | % increase compared with control, Internode 3 ([1]; 6 μg per plant): 4% | % increase compared with control, Total elongation (internode 2 + internode 3) ([1]; 20 μg per plant): 54% | % increase compared with control, Internode 2 ([1]; 20 μg per plant): 6% | % increase compared with control, Internode 3 ([1]; 20 μg per plant): 48% | % increase compared with control, Total elongation (internode 2 + internode 3) ([1]; 200 μg per plant): 113% | % increase compared with control, Internode 2 ([1]; 200 μg per plant): 43% | % increase compared with control, Internode 3 ([1]; 200 μg per plant): 70% | elongation of internode 3 (in words) [1]: strong elongation of internode 3 | elongation of internodes by rate (in words) [1]: elongation of both internodes at all three rates tested

C[C@]12CCC3[C@@H](CC(F)(F)[C@@]4(F)C[C@H](O)CC[C@]34C)C1CC[C@@H]2O (stereo partly drawn) [Compound P1, 5-Fluoro-6α,6β-difluoro-3α,17β-dihydroxy-5α-androstan]
% increase compared with control, Total elongation (internode 2 + internode 3) ([1]; 6 μg per plant): 0% | % increase compared with control, Internode 2 ([1]; 6 μg per plant): 0% | % increase compared with control, Internode 3 ([1]; 6 μg per plant): 0% | % increase compared with control, Total elongation (internode 2 + internode 3) ([1]; 20 μg per plant): 160% | % increase compared with control, Internode 2 ([1]; 20 μg per plant): 44% | % increase compared with control, Internode 3 ([1]; 20 μg per plant): 116% | % increase compared with control, Total elongation (internode 2 + internode 3) ([1]; 200 μg per plant): 108% | % increase compared with control, Internode 2 ([1]; 200 μg per plant): 30% | % increase compared with control, Internode 3 ([1]; 200 μg per plant): 78% | elongation of internode 3 (in words) [1]: strong elongation of internode 3 | elongation of internodes by rate (in words) [1]: at the highest two rates, but not at the lowest rate

C[C@]12CCC3[C@@H](CC(F)(F)[C@H]4C[C@H](O)CC[C@]34C)C1CC[C@@H]2O (stereo partly drawn) [Compound P2, 6α,6β-difluoro-3α,17β-diol-5α-androstan]
% increase compared with control, Total elongation (internode 2 + internode 3) ([1]; 6 μg per plant): 0% | % increase compared with control, Internode 2 ([1]; 6 μg per plant): 0% | % increase compared with control, Internode 3 ([1]; 6 μg per plant): 0% | % increase compared with control, Total elongation (internode 2 + internode 3) ([1]; 20 μg per plant): 160% | % increase compared with control, Internode 2 ([1]; 20 μg per plant): 50% | % increase compared with control, Internode 3 ([1]; 20 μg per plant): 110% | % increase compared with control, Total elongation (internode 2 + internode 3) ([1]; 200 μg per plant): 54% | % increase compared with control, Internode 2 ([1]; 200 μg per plant): 31% | % increase compared with control, Internode 3 ([1]; 200 μg per plant): 23% | elongation of internode 3 (in words) [1]: strong elongation of internode 3 | elongation of internodes by rate (in words) [1]: at the highest two rates, but not at the lowest rate

CC(C)[C@@H](C)[C@@H](O)[C@H](O)[C@@H](C)[C@H]1CC[C@H]2[C@@H]3COC(=O)[C@H]4C[C@H](O)[C@H](O)C[C@]4(C)[C@H]3CC[C@]12C [Standard, 24-epi-brassinolide, reference compound]
Number of cobs per plot, % increase compared to untreated control (maize; Kransfontein, 0.3 g AI/ha): −4.3% | Plant height 9-10 leaf stage, % increase compared to untreated control (maize; Kransfontein, 0.3 g AI/ha): 1.7% | Plant height 10 leaf stage, % increase compared to untreated control (maize; Kransfontein, 0.3 g AI/ha): 2.1% | Yield, % increase compared to untreated control (maize; Kransfontein, 0.3 g AI/ha): −2.8% | Number of cobs per plot (maize; Kransfontein, 0.3 g AI/ha): 33.3 | Plant height 9-10 leaf stage (maize; Kransfontein, 0.3 g AI/ha): 36.3 cm | Plant height 10 leaf stage (maize; Kransfontein, 0.3 g AI/ha): 48.7 cm | Yield (maize; Kransfontein, 0.3 g AI/ha): 4017.9 kg/ha | Number of cobs per plot, % increase compared to untreated control (maize; Kransfontein, 0.6 g AI/ha): −2.9% | Plant height 9-10 leaf stage, % increase compared to untreated control (maize; Kransfontein, 0.6 g AI/ha): 3.6% | Plant height 10 leaf stage, % increase compared to untreated control (maize; Kransfontein, 0.6 g AI/ha): 3.4% | Yield, % increase compared to untreated control (maize; Kransfontein, 0.6 g AI/ha): −3.6% | Number of cobs per plot (maize; Kransfontein, 0.6 g AI/ha): 33.8 | Plant height 9-10 leaf stage (maize; Kransfontein, 0.6 g AI/ha): 37.0 cm | Plant height 10 leaf stage (maize; Kransfontein, 0.6 g AI/ha): 49.3 cm | Yield (maize; Kransfontein, 0.6 g AI/ha): 3985.2 kg/ha | Number of cobs per plot, % increase compared to untreated control (maize; Lindley, 0.3 g AI/ha): 1.1% | Plant height 6-7 leaf stage, % increase compared to untreated control (maize; Lindley, 0.3 g AI/ha): 3.4% | Plant height 9 leaf stage, % increase compared to untreated control (maize; Lindley, 0.3 g AI/ha): 1.6% | Yield, % increase compared to untreated control (maize; Lindley, 0.3 g AI/ha): 2.0% | Number of cobs per plot (maize; Lindley, 0.3 g AI/ha): 60.0 | Plant height 6-7 leaf stage (maize; Lindley, 0.3 g AI/ha): 21.5 cm | Plant height 9 leaf stage (maize; Lindley, 0.3 g AI/ha): 31.0 cm | Yield (maize; Lindley, 0.3 g AI/ha): 10976.9 kg/ha | Number of cobs per plot, % increase compared to untreated control (maize; Lindley, 0.6 g AI/ha): 2.5% | Plant height 6-7 leaf stage, % increase compared to untreated control (maize; Lindley, 0.6 g AI/ha): 1.9% | Plant height 9 leaf stage, % increase compared to untreated control (maize; Lindley, 0.6 g AI/ha): 2.6% | Yield, % increase compared to untreated control (maize; Lindley, 0.6 g AI/ha): 1.2% | Number of cobs per plot (maize; Lindley, 0.6 g AI/ha): 60.8 | Plant height 6-7 leaf stage (maize; Lindley, 0.6 g AI/ha): 21.2 cm | Plant height 9 leaf stage (maize; Lindley, 0.6 g AI/ha): 31.3 cm | Yield (maize; Lindley, 0.6 g AI/ha): 10890.5 kg/ha | % increase compared with control, Total elongation (internode 2 + internode 3) ([1]; 6 μg per plant): 154% | % increase compared with control, Internode 2 ([1]; 6 μg per plant): 150% | % increase compared with control, Internode 3 ([1]; 6 μg per plant): 4% | elongation of internode 3 (in words) [1]: almost no elongation of the third internode
